Results from US20260015358A1, “BICYCLIC DERIVATIVES, COMPOSITIONS AND USES THEREOF” (Danatlas Pharmaceuticals Co., Ltd., priority 2023, published 2026).
pIC50: −log10 of the molar value.

What was measured:
[1] = target: T1, WRN [UniPro: Q14191 (WRN_HUMAN), N500-C946] (Homo sapiens (Human), UniProt Q14191); assay: WRN unwinding assay (FORKF DNA, fluorescence); type: biochemical; conditions: Table 14
[2] = target: T1, WRN [UniPro: Q14191 (WRN_HUMAN), N500-C946]; assay: WRN ATPase assay (ADP-Glo); type: biochemical; conditions: WRN enzymatic activity assay
Protocol: WRN ATPase assay was initiated to evaluate potential inhibitory effect of compounds for ATP hydrolysis activity of WRN protein. WRN [UniPro: Q14191 (WRN_HUMAN), N500-C946] was expressed and purified in insect system and stored at −80° C. in aliquots. […] ADP quantity produced from ATP hydrolysis by WRN catalytic reaction was measured using a commercially available ADP-Glo Assay (ADP-Glo™ Kinase Assay from Promega, 10000 assays, #V9102). […] Compounds dissolved in DMSO (Sigma, D8418) were plated into a 96-well intermediate plate (BioFil, VWP-032-096) for 3-fold serial titration for 10 points using DMSO, and well-to-well transfer the titrated compounds into another 96-well intermediate plate including assay buffer in advance. Shake the 96-well intermediate plate at 600 rpm for 10 min to fully mix. Specifically, a 4× working mixture of WRN was diluted to a concentration of 8 nM in assay buffer. […] After centrifuging at 1000 rpm and shaking at 500 rpm, the assay plate was pre-incubated for 30 min. Then, 5 μL 2×FORKF DNA and ATP working mixture was dispensed into assay plate. Plate was sealed, centrifuged and incubated for an additional 40 min. at 37° C. The reaction was stopped with the addition of 10 μL of the first ADP-Glo reagent and incubated for 40 min. to remove the excess amount of ATP. Afterwards, 20 μL of ATP detection reagent was added and incubated for 30 min. before reading. Luminescence output was recorded using BMG CLARIO star plus reader. Each concentration of compound was tested in duplicates in the assay plate. Average luminescence signal of high control (Wells with 1% DMSO) was calculated as High Control (HC). Average luminescence signal of low control (Wells with no WRN protein) was calculated as Low control (LC).
IC50 values were determined by fitting the data to the standard 4 parameters with Hill Slope using GraphPad Prism software.

T1 sequence (Q14191 500-946): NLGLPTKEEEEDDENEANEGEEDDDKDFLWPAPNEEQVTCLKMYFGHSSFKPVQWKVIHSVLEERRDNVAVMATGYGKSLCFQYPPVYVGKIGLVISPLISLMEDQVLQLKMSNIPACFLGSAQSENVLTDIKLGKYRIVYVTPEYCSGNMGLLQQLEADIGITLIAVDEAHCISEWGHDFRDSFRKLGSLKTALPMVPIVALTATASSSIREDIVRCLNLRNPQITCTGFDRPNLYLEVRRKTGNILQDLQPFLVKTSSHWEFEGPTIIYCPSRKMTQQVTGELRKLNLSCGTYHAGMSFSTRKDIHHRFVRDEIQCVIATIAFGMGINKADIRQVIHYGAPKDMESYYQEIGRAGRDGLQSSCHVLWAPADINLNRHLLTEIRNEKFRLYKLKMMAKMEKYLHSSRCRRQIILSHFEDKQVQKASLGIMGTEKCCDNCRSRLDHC

Row | pIC50 [1] | pIC50 [2] | SMILES
1 | > 7.00 | > 7.00 | CCc1c(N2CCN(C(=O)CNC(=O)Cc3ccccc3)CC2)c(=O)n2nc(C3=CCOCC3)nc2n1CC(=O)Nc1ccc(C(F)(F)F)cc1Cl [Example 267, N-(2-Chloro-4-(trifluoromethyl)phenyl)-2-(2-(3,6-dihydro-2H-pyran-4-yl)-5-ethyl-7-oxo-6-(4-((2-phenylacetyl)glycyl)piperazin-1-yl)-[1,2,4]triazolo[1,5-a]pyrimidin-4(7H)-yl)acetamide]
2 | > 7.00 | 6.00 to 7.00 | CCc1c(N2CCN(C(=O)CNC(=O)c3csc(C)n3)CC2)c(=O)n2nc(C3=CCOCC3)nc2n1CC(=O)Nc1ccc(C(F)(F)F)cc1Cl [Example 105, N-(2-(4-(4-(2-((2-Chloro-4-(trifluoromethyl)phenyl)amino)-2-oxoethyl)-2-(3,6-dihydro-2H-pyran-4-yl)-5-ethyl-7-oxo-4,7-dihydro-[1,2,4]triazolo[1,5-a]pyrimidin-6-yl)piperazin-1-yl)-2-oxoethyl)-2-methylthiazole-4-carboxamide]
3 | > 7.00 | > 7.00 | CCc1c(N2CCN(C(=O)CNC(=O)c3ccncc3)CC2)c(=O)n2nc(C3=CCOCC3)nc2n1CC(=O)Nc1ccc(C(F)(F)F)cc1Cl [Example 96, N-(2-(4-(4-(2-((2-Chloro-4-(trifluoromethyl)phenyl)amino)-2-oxoethyl)-2-(3,6-dihydro-2H-pyran-4-yl)-5-ethyl-7-oxo-4,7-dihydro-[1,2,4]triazolo[1,5-a]pyrimidin-6-yl)piperazin-1-yl)-2-oxoethyl)isonicotinamide]
4 | > 7.00 | > 7.00 | CCc1c(N2CCN(C(=O)CNC(=O)c3cccs3)CC2)c(=O)n2nc(C3=CCOCC3)nc2n1CC(=O)Nc1ccc(C(F)(F)F)cc1Cl [Example 386, N-(2-(4-(4-(2-((2-Chloro-4-(trifluoromethyl)phenyl)amino)-2-oxoethyl)-2-(3,6-dihydro-2H-pyran-4-yl)-5-ethyl-7-oxo-4,7-dihydro-[1,2,4]triazolo[1,5-a]pyrimidin-6-yl)piperazin-1-yl)-2-oxoethyl)thiophene-2-carboxamide]
5 | > 7.00 | > 7.00 | CCc1c(N2CCN(C(=O)c3c(O)nn4ccccc34)CC2)c(=O)n2nc(C3=CCOCC3)nc2n1CC(=O)Nc1ccc(C(F)(F)F)cc1Cl [Example 304, N-(2-Chloro-4-(trifluoromethyl)phenyl)-2-(2-(3,6-dihydro-2H-pyran-4-yl)-5-ethyl-6-(4-(2-hydroxypyrazolo[1,5-a]pyridine-3-carbonyl)piperazin-1-yl)-7-oxo-[1,2,4]triazolo[1,5-a]pyrimidin-4(7H)-yl) acetamide]
6 | > 7.00 | > 7.00 | CCc1c(N2CCN(C(=O)c3ncc4ccccc4c3O)CC2)c(=O)n2nc(C3=CCOCC3)nc2n1CC(=O)Nc1ccc(C(F)(F)F)cc1Cl [Example 204, N-(2-Chloro-4-(trifluoromethyl)phenyl)-2-(2-(3,6-dihydro-2H-pyran-4-yl)-5-ethyl-6-(4-(4-hydroxyisoquinoline-3-carbonyl)piperazin-1-yl)-7-oxo-[1,2,4]triazolo[1,5-a]pyrimidin-4(7H)-yl)acetamide]
7 | > 7.00 | > 7.00 | CCc1c(N2CCN(C(=O)CNC(=O)c3ccno3)CC2)c(=O)n2nc(N3CCOCC3)nc2n1CC(=O)Nc1ccc(C(F)(F)F)cc1Cl [Example 376, N-(2-(4-(4-(2-((2-Chloro-4-(trifluoromethyl)phenyl)amino)-2-oxoethyl)-5-ethyl-2-morpholino-7-oxo-4,7-dihydro-[1,2,4]triazolo[1,5-a]pyrimidin-6-yl)piperazin-1-yl)-2-oxoethyl) isoxazole-5-carboxamide]
8 | > 7.00 | > 7.00 | CCc1c(N2CCN(C(=O)CNC(=O)c3cccc(N)c3)CC2)c(=O)n2nc(C3=CCOCC3)nc2n1CC(=O)Nc1ccc(C(F)(F)F)cc1Cl [Example 288, 3-Amino-N-(2-(4-(4-(2-((2-chloro-4-(trifluoromethyl)phenyl)amino)-2-oxoethyl)-2-(3,6-dihydro-2H-pyran-4-yl)-5-ethyl-7-oxo-4,7-dihydro-[1,2,4]triazolo[1,5-a]pyrimidin-6-yl)piperazin-1-yl)-2-oxoethyl)benzamide]
9 | > 7.00 | > 7.00 | CCc1c(N2CCN(C(=O)CNC(=O)c3cncc(O)c3)CC2)c(=O)n2nc(C3=CCOCC3)nc2n1CC(=O)Nc1ccc(C(F)(F)F)cc1Cl [Example 281, N-(2-(4-(4-(2-((2-Chloro-4-(trifluoromethyl)phenyl)amino)-2-oxoethyl)-2-(3,6-dihydro-2H-pyran-4-yl)-5-ethyl-7-oxo-4,7-dihydro-[1,2,4]triazolo[1,5-a]pyrimidin-6-yl)piperazin-1-yl)-2-oxoethyl)-5-hydroxynicotinamide]
10 | > 7.00 | > 7.00 | CCc1c(N2CCN(C(=O)CNC(=O)c3cc(Cl)ccc3Cl)CC2)c(=O)n2nc(C3=CCOCC3)nc2n1CC(=O)Nc1ccc(C(F)(F)F)cc1Cl [Example 126, 2,5-Dichloro-N-(2-(4-(4-(2-((2-chloro-4-(trifluoromethyl)phenyl)amino)-2-oxoethyl)-2-(3,6-dihydro-2H-pyran-4-yl)-5-ethyl-7-oxo-4,7-dihydro-[1,2,4]triazolo[1,5-a]pyrimidin-6-yl)piperazin-1-yl)-2-oxoethyl)benzamide]
11 | > 7.00 | > 7.00 | CCc1c(N2CCN(C(=O)CNC(=O)NCc3ccccc3)CC2)c(=O)n2nc(C3=CCOCC3)nc2n1CC(=O)Nc1ccc(C(F)(F)F)cc1Cl [Example 183, 2-(6-(4-((Benzylcarbamoyl)glycyl)piperazin-1-yl)-2-(3,6-dihydro-2H-pyran-4-yl)-5-ethyl-7-oxo-[1,2,4]triazolo[1,5-a]pyrimidin-4(7H)-yl)-N-(2-chloro-4-(trifluoromethyl)phenyl)acetamide]
12 | 6.00 to 7.00 | 6.00 to 7.00 | CCc1c(N2CCN(C(=O)c3[nH]c4ccncc4c3F)CC2)c(=O)n2nc(C3=CCOCC3)nc2n1CC(=O)Nc1ccc(C(F)(F)F)cc1Cl [Example 300, N-(2-Chloro-4-(trifluoromethyl)phenyl)-2-(2-(3,6-dihydro-2H-pyran-4-yl)-5-ethyl-6-(4-(3-fluoro-1H-pyrrolo[3,2-c]pyridine-2-carbonyl)piperazin-1-yl)-7-oxo-[1,2,4]triazolo[1,5-a]pyrimidin-4(7H)-yl)acetamide]
13 | 6.00 to 7.00 | 6.00 to 7.00 | CCNC(=O)C(=O)N1CCN(c2c(CC)n(CC(=O)Nc3ccc(C(F)(F)F)cc3Cl)c3nc(C4=CCOCC4)nn3c2=O)CC1 [Example 336, 2-(4-(4-(2-((2-Chloro-4-(trifluoromethyl)phenyl)amino)-2-oxoethyl)-2-(3,6-dihydro-2H-pyran-4-yl)-5-ethyl-7-oxo-4,7-dihydro-[1,2,4]triazolo[1,5-a]pyrimidin-6-yl)piperazin-1-yl)-N-ethyl-2-oxoacetamide]
14 | > 7.00 | > 7.00 | CCc1c(N2CCN(C(=O)CNC(=O)c3cc(C)on3)CC2)c(=O)n2nc(C3=CCOCC3)nc2n1CC(=O)Nc1ccc(C(F)(F)F)cc1Cl [Example 107, N-(2-(4-(4-(2-((2-Chloro-4-(trifluoromethyl)phenyl)amino)-2-oxoethyl)-2-(3,6-dihydro-2H-pyran-4-yl)-5-ethyl-7-oxo-4,7-dihydro-[1,2,4]triazolo[1,5-a]pyrimidin-6-yl)piperazin-1-yl)-2-oxoethyl)-5-methylisoxazole-3-carboxamide]
